Common to all, as to assay: animal or person
Common to all, as to assay type: in vivo

For one experiment, the system named is Mice. Conditions: Mus musculus, po; for ED50: read-out: MES test ED50.
Experiment [1] relates to Male Sprague-Dawley rats. Conditions: for ED50: Rattus norvegicus, read-out: Prevention ED50; for ED50 / Prevention Peak Time: ip; for Prevention Peak Time / Prevention Protection %: rat, in vivo.
In experiment [2] the test system is Male Sprague-Dawley rats. The settings on record: Rattus norvegicus, iv, read-out: Intervention Protection %.
[3] abbreviates: read-out: MES test Protection %.

In general, ED50 refers to the dose that gives a 50% effect, or the effect in half of the subjects. Consider `COCO[C@@H](c1ccccc1Cl)[C@H](C)OC(N)=O` [Example 1, 1-(2-chlorophenyl)-(S)-1-methoxymethoxypropyl-(S)-2-carbamate], for which the results for the ED50 with Mice and in the experiment with Male Sprague-Dawley rats [1] were 21.6 mg/kg and 26.6 mg/kg, respectively. Moreover, the “Prevention Peak Time” value in the experiment on Male Sprague-Dawley rats [1] is 0.5 h. Also, the responders at 46 mg/kg in the experiment on Male Sprague-Dawley rats [2] is 50%.

`CC[C@H](OC(N)=O)[C@@H](OCOC)c1ccccc1Cl` [Example 9, 1-(2-chlorophenyl)-(S)-1-methoxymethoxybutyl-(S)-2-carbamate]: the responders at 90 mg/kg in the experiment on Mice (setting [3]) was 100%. In addition, in the experiment with Male Sprague-Dawley rats [2], the responders at 46 mg/kg is 33.3%.

For the compound `COCO[C@@H](c1ccccc1Cl)[C@@H](OC(N)=O)C(C)C` [Example 10, 1-(2-chlorophenyl)-(S)-1-methoxymethoxy-3-methyl-butyl-(S)-2-carbamate], in the experiment with Mice (setting [3]), the responders at 90 mg/kg turned out to be 100%. Moreover, the responders at 46 mg/kg in the experiment with Male Sprague-Dawley rats [2] is 66.7%.

With `CCCC[C@H](OC(N)=O)[C@@H](OCOC)c1ccccc1Cl` [Example 11, 1-(2-chlorophenyl)-(S)-1-methoxymethoxyhexyl-(S)-2-carbamate], the responders at 90 mg/kg in the experiment on Mice (setting [3]) is 100%. The responders at 46 mg/kg in the experiment on Male Sprague-Dawley rats [2] worked out at 66.7%.

For `COCO[C@@H](c1ccccc1I)[C@H](C)OC(N)=O` [Example 20, 1-(2-iodophenyl)-(S)-1-methoxymethoxypropyl-(S)-2-carbamate], in the experiment with Mice, the ED50 was determined as 29.5 mg/kg. Further, in the experiment with Male Sprague-Dawley rats [1], the ED50 turned out to be 25.9 mg/kg and the “Prevention Peak Time” value is reported as 1 h. Also, the responders at 46 mg/kg in the experiment on Male Sprague-Dawley rats [2] was found to be 16.7%.

For the compound `CC[C@H](OC(N)=O)[C@@H](OCOC)c1ccccc1I` [Example 28, 1-(2-iodophenyl)-(S)-1-methoxymethoxybutyl-(S)-2-carbamate], in the experiment with Mice (setting [3]), the responders at 90 mg/kg came out at 33.3%. Besides, the “Prevention Protection %” value with Male Sprague-Dawley rats [1] is recorded as “^a50 (100%)”. For the same compound, the responders at 46 mg/kg in the experiment on Male Sprague-Dawley rats [2] is 33.3%.

In the case of `COCO[C@@H](c1cccc(I)c1)[C@H](C)OC(N)=O` [Example 52, 1-(3-iodophenyl)-(S)-1-methoxymethoxypropyl-(S)-2-carbamate], the ED50 in the experiment on Mice stood at 24.7 mg/kg. The “Prevention Protection %” value in the experiment on Male Sprague-Dawley rats [1] was “^a20 (16.7%)”. For the same compound, the responders at 46 mg/kg with Male Sprague-Dawley rats [2] came to 100%.

As to `COCO[C@@H](c1cccc(Cl)c1Cl)[C@H](C)OC(N)=O` [Example 68, 1-(2,3-dichlorophenyl)-(S)-1-methoxymethoxypropyl-(S)-2-carbamate], the responders at 90 mg/kg in the experiment on Mice (setting [3]) came out at 100%. The responders at 46 mg/kg in the experiment with Male Sprague-Dawley rats [2] came to 40%.

Consider `COCO[C@H](c1ccccc1Cl)[C@H](C)OC(N)=O` [Example 71, 1-(2-chlorophenyl)-(R)-1-methoxymethoxypropyl-(S)-2-carbamate], for which, in the experiment with Mice (setting [3]), the responders at 90 mg/kg came to 100%. The responders at 46 mg/kg with Male Sprague-Dawley rats [2] came to 100%.

For `COCO[C@@H](c1ccccc1Cl)[C@@H](C)OC(N)=O` [Example 72, 1-(2-chlorophenyl)-(S)-1-methoxymethoxypropyl-(R)-2-carbamate], in the experiment with Mice (setting [3]), the responders at 90 mg/kg was 100%. For the same compound, the responders at 46 mg/kg in the experiment on Male Sprague-Dawley rats [2] was found to be 50%.

On to `CO[C@@H](c1ccccc1F)[C@H](C)OC(N)=O` [Example 135, 1-(2-fluorophenyl)-(S)-1-methoxypropyl-(S)-2-carbamate], for which the ED50 with Mice is 12.5 mg/kg. For the same compound, the “Prevention Protection %” value with Male Sprague-Dawley rats [1] is recorded as “^a20 (16.7%)”. For the same compound, the responders at 46 mg/kg in the experiment on Male Sprague-Dawley rats [2] was 100%.

For the compound `CO[C@@H](c1ccccc1I)[C@H](C)OC(N)=O` [Example 143, 1-(2-iodophenyl)-(S)-1-methoxypropyl-(S)-2-carbamate], the ED50 in the experiment on Mice was 15.7 mg/kg. In the experiment with Male Sprague-Dawley rats [1], the ED50 stood at 19.6 mg/kg and the “Prevention Peak Time” value came out at 1 h. Also, the responders at 23 mg/kg with Male Sprague-Dawley rats [2] came to 66.7%.

For the compound `CC[C@H](OC(N)=O)[C@@H](OC)c1ccccc1I` [Example 151, 1-(2-iodophenyl)-(S)-1-methoxybutyl-(S)-2-carbamate], in the experiment with Mice, the ED50 was found to be 37 mg/kg. For the same compound, the “Prevention Protection %” value in the experiment with Male Sprague-Dawley rats [1] is recorded as “^a60 (100%)”. Moreover, in the experiment on Male Sprague-Dawley rats [2], the responders at 46 mg/kg is 100%.

As for `CO[C@@H](c1ccc(Cl)cc1Cl)[C@H](C)OC(N)=O` [Example 183, 1-(2,4-dichlorophenyl)-(S)-1-methoxypropyl-(S)-2-carbamate], the responders at 90 mg/kg in the experiment on Mice (setting [3]) stood at 100%. Besides, the responders at 46 mg/kg in the experiment on Male Sprague-Dawley rats [2] was found to be 100%.

For `CO[C@@H](c1cccc(Cl)c1Cl)[C@H](C)OC(N)=O` [Example 191, 1-(2,3-dichlorophenyl)-(S)-1-methoxypropyl-(S)-2-carbamate], the responders at 90 mg/kg in the experiment on Mice (setting [3]) is 100%. Also, in the experiment with Male Sprague-Dawley rats [2], the responders at 46 mg/kg was 100%.

For the compound `CO[C@H](c1ccccc1Cl)[C@H](C)OC(N)=O` [Example 194, 1-(2-chlorophenyl)-(R)-1-methoxypropyl-(S)-2-carbamate], the responders at 90 mg/kg with Mice (setting [3]) stood at 100%. The responders at 46 mg/kg with Male Sprague-Dawley rats [2] was 83.3%.

With `CO[C@@H](c1ccccc1Cl)[C@@H](C)OC(N)=O` [Example 195, 1-(2-chlorophenyl)-(S)-1-methoxypropyl-(R)-2-carbamate], the responders at 90 mg/kg in the experiment with Mice (setting [3]) is 100%. The responders at 46 mg/kg in the experiment with Male Sprague-Dawley rats [2] amounted to 50%.

`C[C@@H](OC(N)=O)[C@H](OC(N)=O)c1ccccc1Cl` [Example 250, 1-(2-chlorophenyl)-(R)-2-carbamoyloxypropyl-(R)-1-carbamate]: the ED50 with Mice is 46.3 mg/kg. Also, the “Prevention Protection %” value in the experiment with Male Sprague-Dawley rats [1] is recorded as “^a60 (16.7%)”.

With `COCO[C@@H](C)[C@@H](OC(N)=O)c1ccccc1Cl` [Example 274, 1-(2-chlorophenyl)-(S)-2-methoxymethoxypropyl-(S)-1-carbamate], the responders at 90 mg/kg in the experiment on Mice (setting [3]) came to 100%. Further, the responders at 46 mg/kg with Male Sprague-Dawley rats [2] came out at 33.3%.

For the compound `C[C@H](OC(N)=O)[C@@H](OC(N)=O)c1c(F)cccc1Cl` [Example 286, 1-(2-chloro-6-fluorophenyl)-(S)-1-carbamoyloxypropyl-(S)-2-carbamate], in the experiment with Mice (setting [3]), the responders at 90 mg/kg amounted to 33.3%.

Regarding `C[C@@H](OC(N)=O)[C@H](OC(N)=O)c1ccccc1F` [Example 289, 1-(2-fluorophenyl)-(R)-1-carbamoyloxypropyl-(R)-2-carbamate], in the experiment with Mice, the median effective dose (ED50) was determined as 56.2 mg/kg. Further, the “Prevention Protection %” value in the experiment on Male Sprague-Dawley rats [1] was “^a80 (16.7%)”.

As for `C[C@@H](OC(N)=O)[C@H](OC(N)=O)c1c(Cl)cccc1Cl` [Example 290, 1-(2,6-dichlorophenyl)-(R)-1-carbamoyloxypropyl-(R)-2-carbamate], the responders at 30 mg/kg in the experiment with Mice (setting [3]) was 33.3%.

For `C[C@@H](OC(N)=O)[C@H](OC(N)=O)c1c(F)cccc1F` [Example 292, 1-(2,6-difluorophenyl)-(R)-1-carbamoyloxypropyl-(R)-2-carbamate], in the experiment on Mice (setting [3]), the responders at 56 mg/kg turned out to be 33.3%.

In the case of `C[C@@H](OC(N)=O)[C@@H](OC(N)=O)c1ccccc1Cl` [Example 294, 1-(2-chlorophenyl)-(S)-1-carbamoyloxypropyl-(R)-2-carbamate], the responders at 90 mg/kg with Mice (setting [3]) stood at 66.6%.

On to `C[C@H](OC(N)=O)[C@H](OC(N)=O)c1ccccc1Cl` [Example 295, 1-(2-chlorophenyl)-(R)-1-carbamoyloxypropyl-(S)-2-carbamate], for which, in the experiment on Mice (setting [3]), the responders at 90 mg/kg was determined as 100%.

The record behind these values is patent US9504668B2 (priority 2013, dated 2016).
